Results on 12 molecules are retold here after ChEMBL document CHEMBL3044970, “Isoniazid: the magic molecule” (2012).

Values after ≈ are worked out from the molar mass of the structure shown.

Holding throughout (format): functional
In experiment [1] the test system is Mycobacterium tuberculosis. As to the kind of experiment: Antimicrobial activity against Mycobacterium tuberculosis H37Rv infected macrophage model.
Experiment [2] has as its system Mycobacterium tuberculosis. As to the kind of experiment: Antimicrobial activity against Mycobacterium tuberculosis H4.
For experiment [3], the system named is Mycobacterium tuberculosis. As to the kind of experiment: Antimicrobial activity against Mycobacterium tuberculosis.
The test system of experiment [4] is Mycobacterium tuberculosis. Kind of experiment: Antimicrobial activity against Mycobacterium tuberculosis H37Rv.
The test system of experiment [5] is Mycobacterium tuberculosis. As to the kind of experiment: Ratio of INH MIC to compound MIC for Mycobacterium tuberculosis H37Rv.
Experiment [6] relates to Mycobacterium tuberculosis. As to the kind of experiment: Antimicrobial activity against Mycobacterium tuberculosis H37Rv by agar dilution method relative to isonicotinoyl hydrazide. On the technique in general: In agar dilution, organisms are placed on agar that contains the substance at set levels.

In the case of `O=C1NC(NNC(=O)c2ccncc2)=N/C1=C\c1cccc(Cl)c1`, the MIC in experiment [1] was 0.8 µg/mL (≈ 2.34 µM).

Consider `O=C(c1ccncc1)N1N=C(c2ccccn2)CC1c1ccc(Cl)cc1` (centres undefined), for which the MIC in experiment [2] and in experiment [3] was 8 µg/mL (≈ 22 µM) throughout.

Turning to `O=C(c1ccncc1)N1N=C(c2ccccn2)CC1c1cccc(Cl)c1` (centres undefined), the MIC in experiment [2] and in experiment [3] was 8 µg/mL (≈ 22 µM) in each case.

`CO[C@H]1/C=C/O[C@@]2(C)Oc3c(C)c(O)c4c(O)c(c(/C=N/N5CCN(C)CC5)c(O)c4c3C2=O)NC(=O)/C(C)=C\C=C\[C@H](C)[C@H](O)[C@@H](C)[C@@H](O)[C@@H](C)[C@H](OC(C)=O)[C@@H]1C` [RIFAMPIN]: the MIC in experiment [4] is 0.2 µg/mL.

Regarding `O=C(c1ccncc1)N1N=C(c2ccccn2)CC1c1ccccc1` (centres undefined), the MIC in experiment [2] and in experiment [3] was 8 µg/mL (≈ 24.4 µM) each time.

For `Cc1ccccc1C1CC(c2ccccn2)=NN1C(=O)c1ccncc1` (centres undefined), the MIC in experiment [2] and in experiment [3] was 8 µg/mL (≈ 23.4 µM) in each case.

Turning to `NNC(=O)c1ccncc1` [ISONIAZID], in experiment [3], the MIC came out at 0.05 µg/mL (≈ 0.365 µM).

With `O=C(c1ccncc1)N1N=C(c2ccccn2)CC1c1ccccc1Cl` (centres undefined), the MIC in experiment [2] and in experiment [3] was 8 µg/mL (≈ 22 µM) in each case.

Take `COc1cc(C2=NN(C(=O)c3ccncc3)C(c3ccc(O)cc3)C2)ccc1OCC(=O)O` (centres undefined): the Ratio in experiment [5] amounted to 5.6. Also, in experiment [4], the MIC was 0.12 µM.

Turning to `O=C(NNC(=S)Nc1ccccc1C(F)(F)F)c1ccncc1`, the Ratio in experiment [6] is 1.24. This molecule also gave an MIC in experiment [4] of 0.58 µM.

In experiment [4], `COc1ccc(C2SCC(=O)N2NC(=O)c2ccncc2)cc1O` (centres undefined) gave an MIC of 0.31 µg/mL.

Molecule `COc1ccc(C2C(Cl)C(=O)N2NC(=O)c2ccncc2)cc1O` (centres undefined) came in with an MIC in experiment [4] of 0.31 µg/mL.
